Results reported in patent publication US20150351390A1, “COMPOSITIONS AND METHODS FOR AUXIN-ANALOG CONJUGATION” (PIONEER HI-BRED INTERNATIONAL, INC., priority 2012, published 2015).

Experiments:
[1] = test system: wild-type Col-0 Arabidopsis; assay: Root growth inhibition by 2,4-D, wild-type Arabidopsis; assay type: in vivo, Arabidopsis thaliana; conditions: Non transgenic (Col-0)
Description: (§1) Seeds of Arabidopsis ecotype Columbia (Col-0) and GH3 transgenic events were surface sterilized with 70% (v/v) ethanol for 5 minutes and 10% (v/v) bleach for 15 minutes. After being washed three times with distilled water, the seeds were incubated at 4° C. for 4 days. The seeds were then germinated on 1× Murashige and Skoog (MS) medium with a pH of 5.7, 3% (w/v) sucrose, and 0.8% (w/v) agar. After incubation for 3.5 days, the seedlings were transferred to the basal medium containing B5 vitamin, 3% (w/v) sucrose, […] MES (pH 5.7), 1.2% (w/v) agar, and filter sterilized auxin herbicides 2,4-D or dicamba was added to the media at 60° C. The concentrations of 2,4-D were 0 μM, 0.1 μM, 0.5 μM, 0.7 μM, and 1.0 μM. The concentrations of dicmaba were 0 μM, 1.0 μM, 5.0 μM, 7.0 μM, and 10 μM. […]
After 6 days on media with various concentrations of 2,4-D or dicamba, the length of the primary root was measured. […]
Transgenic Arabidopsis lines overexpressing SEQ ID NO:3 were generated and evaluated for 2,4-D herbicide response as described in Example 5. […] Root length of 8 plants per transgenic line was measured and the average was compared to untreated seedlings within the same genetic background.

[2] = test system: Transgenic Arabidopsis lines overexpressing SEQ ID NO:3; assay: Root growth inhibition by 2,4-D, transgenic Arabidopsis; assay type: in vivo, Arabidopsis thaliana
Description: Arabidopsis (Arabidopsis thaliana) expressing GH3 genes were produced using floral dip methods of Agrobacterium mediated transformation (Clough S J and Bent A F, 1998, Plant J. 16:735-43; Chung M. H., Chen M. K., Pan S. M. 2000. Transgenic Res. 9: 471-476; Weigel D. and Glazebrook J. 2006. In Planta Transformation of Arabidopsis. Cold Spring Harb. Protoc. 4668 3). Briefly, Arabidopsis (Col-0) plants were grown in soil in pots. The first inflorescence shoots were removed as soon as they emerged. Plants were ready for transformation when the secondary inflorescence shoots were about 3 inches tall. Agrobacterium carrying a suitable binary vector were cultured in 5 mL LB medium at 28° C. with shaking at 200 rpm for two days. 1 mL of the culture was then inoculated into 200 ml fresh LB media and incubated again with vigorous agitation for an additional 20-24 hours at 28° C. The Agrobacterium culture was then subjected to centrifugation at 6000 rpm in a GSA rotor (or equivalent) for 10 minutes. The pellet was resuspended in 20-100 mL of spraying medium containing 5% (wt/v) sucrose and 0.01-0.2% (v/v) Silwet L-77. The Agrobacterium suspension was transferred into a hand-held sprayer for spraying onto inflorescences of the transformation-ready Arabidopsis plants. The sprayed plants were covered with a humidity dome for 24 hours before the cover was removed for growth under normal growing conditions. Seeds were harvested. Screening of transformants was performed under sterile conditions. Surface sterilized seeds were placed onto MS-Agar plates (Phyto Technology labs Prod. No. M519) containing appropriate selective antibiotics (kanamycin 50 mg/L, hygromycin 20 mg/L, or bialaphos 10 mg/L). Anti-Agrobacteirum antibiotic timentin was also included in the media. Plates were cultured at 21° C. at 16 hr light for 7-14 days. Transgenic events harboring GH3 genes were germinated and transferred to soil pots in the greenhouse for evaluation of herbicide tolerance.
A selectable marker gene used to facilitate Arabidopsis transformation was a chimeric gene composed of the 35S promoter from Cauliflower Mosaic Virus (Odell et al. 1985. Nature 313:810-812), the bar gene from Streptomyces hygroscopicus (Thompson et al., 1987. EMBO J. 6:2519-2523), and the 3′UBQ14 terminator region from Arabidopsis (Callis et al., 1995. Genetics 139 (2), 921-939). Another visual selectable marker gene used to facilitate Arabidopsis transformation was a chimeric gene composed of the UBQ promoter from soybean (Xing et al., 2010. Plant Biotechnology Journal 8:772-782), the YFP coding sequence, and the 3′ region of the nopaline synthase gene from the T-DNA of the Ti plasmid of Agrobacterium tumefaciens. Bialophos was used as the selection agent during the transformation process. GH3 genes were expressed with a constitutive promoter, for example, the Arabidopsis UBQ10 promoter (Norris et al., 1993. Plant Mol Biol 21:895-906) or UBQ3 promoter (Norris et al., 1993. Plant Mol Biol 21:895-906) for strong or moderate expression, a GH3 coding sequence, and the 3′ terminator region of the French bean phaseolin gene (Sun et al., 1981. Nature 289:37-41; Slightom et al., 1983. Proc. Natl. Acad. Sci. U.S.A. 80 (7), 1897-1901)
as §1, with “The concentrations of 2,4-D were 0 μM, 0.1 μM, 0.5 μM, 0.7 μM, and 1.0 μM.” left out

Structure (SMILES): O=C(O)COc1ccc(Cl)cc1Cl [2,4-D, 2,4-dichlorophenoxyacetic acid]
- Percentage of the average root length compared with 0 nM 2,4-D treatment ([1]; 10 nM 2,4-D): 77%
- Percentage of the average root length compared with 0 nM 2,4-D treatment ([1]; 100 nM 2,4-D): 58%
- Percentage of the average root length compared with 0 nM 2,4-D treatment ([2]; Line #1, 10 nM 2,4-D): 80%
- Percentage of the average root length compared with 0 nM 2,4-D treatment ([2]; Line #1, 100 nM 2,4-D): 43%
- Percentage of the average root length compared with 0 nM 2,4-D treatment ([2]; Line #2, 10 nM 2,4-D): 83%
- Percentage of the average root length compared with 0 nM 2,4-D treatment ([2]; Line #2, 100 nM 2,4-D): 36%
- Percentage of the average root length compared with 0 nM 2,4-D treatment ([2]; Line #3, 10 nM 2,4-D): 88%
- Percentage of the average root length compared with 0 nM 2,4-D treatment ([2]; Line #3, 100 nM 2,4-D): 63%
- Percentage of the average root length compared with 0 nM 2,4-D treatment ([2]; Line #4, 10 nM 2,4-D): 101%
- Percentage of the average root length compared with 0 nM 2,4-D treatment ([2]; Line #4, 100 nM 2,4-D): 60%
- Percentage of the average root length compared with 0 nM 2,4-D treatment ([2]; Line #5, 10 nM 2,4-D): 76%
- Percentage of the average root length compared with 0 nM 2,4-D treatment ([2]; Line #5, 100 nM 2,4-D): 50%
- Inhibition of root growth by 2,4-D ([2]; transgenic line #4, 10 nM 2,4-D, result in words): completely alleviated
